Measurements published in ChEMBL document CHEMBL6127107, “Oleanolic acid derivatives against drug-resistant bacteria and fungi by multi-targets to avoid drug resistance” (Eur J Med Chem, 2024).
Active and inactive are the calls of the source.

What was measured:
Staphylococcus aureus [1] = assay: Antimicrobial activity against methicillin-resistant Staphylococcus aureus 003; assay type: functional
Enterococcus faecalis = assay: Antimicrobial activity against vancomycin resistant Enterococcus faecalis ATCC 51299; assay type: functional
Staphylococcus aureus [2] = assay: Antimicrobial activity against Staphylococcus aureus 29; assay type: functional
Staphylococcus aureus [3] = assay: Antimicrobial activity against Staphylococcus aureus 31; assay type: functional
Staphylococcus aureus [4] = assay: Antimicrobial activity against Staphylococcus aureus 10; assay type: functional
Candida albicans = assay: Antimicrobial activity against fluconazole-resistant Candida albicans; assay type: functional
[5] = Hemolytic activity against Mianyang red blood cells (unknown origin); assay type: toxicity, cell-based, RBC
[6] = Selectivity index, ratio of HC50 for hemolytic activity against Mianyang red blood cells (unknown origin) to MIC for antimicrobial activity against methicillin resistant Staphylococcus aureus 003; assay type: toxicity, cell-based, RBC; conditions: read-out: Selectivity Index
Pseudomonas aeruginosa = assay: Antimicrobial activity against Pseudomonas aeruginosa; assay type: functional
Escherichia coli = assay: Antimicrobial activity against Escherichia coli; assay type: functional
Staphylococcus aureus [7] = assay: Antibacterial activity against methicillin-resistant Staphylococcus aureus assessed as inhibition of bacterial growth at 1 times of MIC; assay type: functional, organism-based
Staphylococcus aureus [8] = assay: Bactericidal activity against methicillin-resistant Staphylococcus aureus; assay type: functional, organism-based
Staphylococcus aureus [9] = assay: Bactericidal activity against methicillin-resistant Staphylococcus aureus assessed as eradication of bacterial growth at 4 times of MIC measured within 1 hrs relative to control; assay type: functional
Staphylococcus aureus [10] = assay: Antibacterial activity against methicillin-resistant Staphylococcus aureus at sub-MIC measured after 20 days of continuous passage; assay type: functional, organism-based; conditions: time 20.0 day
HEK-293T = assay: Cytotoxicity against HEK293T cells at 64 microg/ml by MTT assay; assay type: toxicity, cell-based; conditions: human, dose 64 µg/ml
Staphylococcus aureus [11] = assay: Synergistic antibacterial activity against methicillin-resistant Staphylococcus aureus assessed as fractional inhibitory concentration index in presence of ceftriaxone; assay type: functional
Staphylococcus aureus [12] = assay: Synergistic antibacterial activity against methicillin-resistant Staphylococcus aureus assessed as fractional inhibitory concentration index in presence of cefoxitin; assay type: functional
Staphylococcus aureus [13] = assay: Synergistic antibacterial activity against methicillin-resistant Staphylococcus aureus assessed as fractional inhibitory concentration index in presence of streptomycin; assay type: functional
Staphylococcus aureus [14] = assay: Synergistic antibacterial activity against methicillin-resistant Staphylococcus aureus assessed as fractional inhibitory concentration index in presence of chlorpromazine; assay type: functional
Staphylococcus aureus [15] = assay: Synergistic antibacterial activity against methicillin-resistant Staphylococcus aureus assessed as fractional inhibitory concentration index in presence of azithromycin; assay type: functional
Staphylococcus aureus [16] = assay: Synergistic antibacterial activity against methicillin-resistant Staphylococcus aureus assessed as fractional inhibitory concentration index in presence of vancomycin; assay type: functional
Staphylococcus aureus [17] = assay: Synergistic antibacterial activity against methicillin-resistant Staphylococcus aureus assessed as fractional inhibitory concentration index in presence of LCN antibiotic; assay type: functional, organism-based
Staphylococcus aureus [18] = assay: Synergistic antibacterial activity against methicillin-resistant Staphylococcus aureus assessed as fractional inhibitory concentration index in presence of polymyxin B; assay type: functional, organism-based
Staphylococcus aureus [19] = assay: Synergistic antibacterial activity against methicillin-resistant Staphylococcus aureus assessed as fractional inhibitory concentration index in presence of enrofloxacin; assay type: functional, organism-based
Staphylococcus aureus [20] = assay: Antibiofilm activity against methicillin-resistant Staphylococcus aureus assessed as decrease in biofilm density at 1 to 8 times of MIC incubated for 24 hrs by fluorescence microscopic analysis; assay type: functional, organism-based
Staphylococcus aureus [21] = assay: Antibiofilm activity against methicillin-resistant Staphylococcus aureus assessed as decrease in biofilm biomass at 1 to 8 times of MIC by crystal violet staining based analysis; assay type: functional, organism-based
Staphylococcus aureus [22] = assay: Antibiofilm activity against methicillin-resistant Staphylococcus aureus assessed as reduction in number of live cells at 8 times of MIC (reference value: 7.79 log10CFU/ml); assay type: functional
Staphylococcus aureus [23] = assay: Antibiofilm activity against methicillin-resistant Staphylococcus aureus assessed as inhibition of biofilm formation at 2 times of MIC by crystal violet staining based analysis relative to control; assay type: functional
Mitochondrial membrane = assay: Induction of mitochondrial membrane depolarization in methicillin-resistant Staphylococcus aureus assessed as increase in fluorescence intensity at 1 to 8 times of MIC by DiSC3(5) staining based analysis; assay type: cell membranes
Cell membrane [24] = assay: Disruption of cell membrane integrity in Candida albicans; assay type: subcellular
Cell membrane [25] = assay: Disruption of cell membrane integrity in methicillin-resistant Staphylococcus aureus assessed as nucleic acid leakage by absorbance based analysis; assay type: subcellular
Staphylococcus aureus [26] = assay: Antimicrobial activity against methicillin-resistant Staphylococcus aureus in presence of peptidoglycan; assay type: functional, organism-based
Staphylococcus aureus [27] = assay: Antimicrobial activity against methicillin-resistant Staphylococcus aureus in presence of cardiolipin; assay type: functional, organism-based
Staphylococcus aureus [28] = assay: Antimicrobial activity against methicillin-resistant Staphylococcus aureus in presence of phosphatidylethanolamine; assay type: functional, organism-based
Cell membrane [29] = assay: Disruption of cell membrane integrity in methicillin-resistant Staphylococcus aureus assessed as cell rupture at 2 to 4 times of MIC by scanning electron microscopic analysis; assay type: subcellular
Cell membrane [30] = assay: Disruption of cell membrane integrity in methicillin-resistant Staphylococcus aureus assessed as cell deformation at 2 to 4 times of MIC by scanning electron microscopic analysis; assay type: subcellular
Staphylococcus aureus [31] = assay: Antibacterial activity against methicillin-resistant Staphylococcus aureus in presence of DNA; assay type: functional, organism-based
DNA [32] = assay: Binding affinity to methicillin-resistant Staphylococcus aureus DNA assessed as change in DNA conformation by UV absorption based analysis; assay type: nucleic-acid assay
DNA [33] = assay: Binding affinity to […] methicillin-resistant Staphylococcus aureus DNA assessed as inhibition of DNA migration by electrophoretic analysis; assay type: nucleic-acid assay
DNA [34] = assay: Binding affinity to methicillin-resistant Staphylococcus aureus DNA assessed as decrease in fluorescence by PI staining based analysis; assay type: nucleic-acid assay
DNA [35] = assay: Binding affinity to methicillin-resistant Staphylococcus aureus DNA minor groove assessed as decrease in fluorescence by DAPI staining based analysis; assay type: nucleic-acid assay
Staphylococcus aureus [36] = assay: Antibacterial activity against methicillin-resistant Staphylococcus aureus infected in cyclophosphamide-injected Kunming mouse model of skin wound infection assessed as increase in body weight at 2 to 4 mg/kg measured after 3 days; assay type: functional, organism-based; conditions: dose 2-4 mg/kg, time 3.0 day
Staphylococcus aureus [37] = assay: Antibacterial activity against methicillin-resistant Staphylococcus aureus infected in cyclophosphamide-injected Kunming mouse model of skin wound infection assessed as wound scabbing at 2 to 4 mg/kg measured after 2 days by photographic analysis; assay type: functional, organism-based; conditions: dose 2-4 mg/kg, time 2.0 day
Staphylococcus aureus [38] = assay: Antibacterial activity against methicillin-resistant Staphylococcus aureus infected in cyclophosphamide-injected Kunming mouse model of skin wound infection assessed as reduction in bacterial load in skin at 2 mg/kg measured after 7 days; assay type: functional; conditions: time 7 day
Staphylococcus aureus [39] = assay: Antibacterial activity against methicillin-resistant Staphylococcus aureus infected in cyclophosphamide-injected Kunming mouse model of skin wound infection assessed as reduction in bacterial load in skin at 4 mg/kg measured after 7 days; assay type: functional; conditions: time 7 day
Staphylococcus aureus [40] = assay: (§1) Antibacterial activity against methicillin-resistant Staphylococcus aureus infected in cyclophosphamide-injected Kunming mouse model of skin wound infection assessed as reduction in IL-6 level in skin at 1 to 4 mg/kg administered for 7 days and measured on day 8; assay type: functional, organism-based; conditions: dose 1-4 mg/kg, time 8.0 day
Staphylococcus aureus [41] = assay: Antibacterial activity against methicillin-resistant Staphylococcus aureus infected in cyclophosphamide-injected Kunming mouse model of skin wound infection assessed as increase in IL-10 level in skin at 1 to 4 mg/kg administered for 7 days and measured on day 8; assay type: functional, organism-based; conditions: dose 1-4 mg/kg, time 8.0 day
Staphylococcus aureus [42] = assay: as §1, with “normal morphological appearance of” for “reduction in IL-6 level in”, “8 by H and E staining based analysis” for “8”; assay type: functional, organism-based; conditions: dose 1-4 mg/kg, time 8.0 day

CC(=O)O[C@H]1CC[C@]2(C)[C@H]3CC=C4[C@@H]5CC(C)(C)CC[C@]5(C(=O)NCCCNC(=N)N)CC[C@@]4(C)[C@]3(C)CC[C@H]2C1(C)C
1.94 log10CFU/mg: Activity (Staphylococcus aureus [39])
2 µg/mL: MIC (Enterococcus faecalis)
2.7 log10CFU/ml: Activity (Staphylococcus aureus [22])
1.24 log10CFU/mg: Activity (Staphylococcus aureus [38])
Non-Toxic: Activity (HEK-293T)
inactive: Activity (Staphylococcus aureus [27]) | Activity (Staphylococcus aureus [28]) | Activity (Staphylococcus aureus [31]) | Activity (DNA [35])
399 µg/mL: HC50 [5]
> 64 µg/mL: MIC (Pseudomonas aeruginosa) | MIC (Escherichia coli)
0.188: fractional inhibitory concentration index (FICI) (Staphylococcus aureus [15])
>80%: inhibition (INH) (Staphylococcus aureus [23])
399: selectivity ratio [6]
99.99%: Activity (Staphylococcus aureus [9])
1 µg/mL: MIC (Staphylococcus aureus [1]) | MIC (Staphylococcus aureus [2]) | MIC (Staphylococcus aureus [3]) | MIC (Staphylococcus aureus [4]) | MIC (Candida albicans)
active: Activity (Staphylococcus aureus [7]) | Activity (Staphylococcus aureus [8]) | Activity (Staphylococcus aureus [10]) | Activity (Staphylococcus aureus [11]) | Activity (Staphylococcus aureus [12]) | Activity (Staphylococcus aureus [13]) | Activity (Staphylococcus aureus [14]) | Activity (Staphylococcus aureus [16]) | Activity (Staphylococcus aureus [17]) | Activity (Staphylococcus aureus [18]) | Activity (Staphylococcus aureus [19]) | Activity (Staphylococcus aureus [20]) Dose-Dependent Effect | Activity (Staphylococcus aureus [21]) | Activity (Mitochondrial membrane) Dose-Dependent Effect | Activity (Cell membrane [24]) | Activity (Cell membrane [25]) | Activity (Staphylococcus aureus [26]) | Activity (Cell membrane [29]) | Activity (Cell membrane [30]) | Activity (DNA [32]) | Activity (DNA [33]) | Activity (DNA [34]) Dose-Dependent Effect | Activity (Staphylococcus aureus [36]) | Activity (Staphylococcus aureus [37]) | Activity (Staphylococcus aureus [40]) | Activity (Staphylococcus aureus [41]) | Activity (Staphylococcus aureus [42])
